Measurements reported in publication PMC5702897 (CPT: Pharmacometrics & Systems Pharmacology, 2017).
Read-outs that look alike come from different tables or passages of the source.

Columns and labels:
[1] = weakly basic compound; cited from earlier work
[2] = 40 mg single dose, healthy volunteers, cited from earlier work
[3] = 15 to 450 mg given in fasted state; cited from earlier work

## CS(=O)(=O)N1CCN(Cc2cc3nc(-c4cccc5[nH]ncc45)nc(N4CCOCC4)c3s2)CC1 [pictilisib, Pictilisib]
[1]
  pKa (first value): 4.2
[2]; fasted with PPI (rabeprazole)
  median AUCinf: 906 ng·h/mL
[2]; fasted
  median AUCinf: 1,760 ng/mL*h
[2]; fed (high-fat food)
  median AUCinf: 2,070 ng/mL*h
[2]; fed with PPI (rabeprazole)
  median AUCinf: 1,180 ng/mL*h
PPI=0, Fasted
  Absorption rate constant (Ka), typical value: 2.63 h⁻¹
PPI=0, Fed
  Absorption rate constant (Ka), typical value: 0.297 h⁻¹
PPI=1, Fasted
  Absorption rate constant (Ka), typical value: 1.361 h⁻¹
PPI=1, Fed
  Absorption rate constant (Ka), typical value: 0.154 h⁻¹
Both PPI and food present
  Ka as percent of the fasted state value: about 6%
Healthy volunteers, 40 mg
  Absorption lag time (Tlag), typical value: 0.47 H
  Central volume (Vc/F), typical value: 304.9 L
  Peripheral volume (Vp/F), typical value: 175.9 L
human, in vivo
  BSV of absorption lag time (Tlag): 3.00%
  BSV of central volume (Vc/F): 37.7%
One value for all four states
  BSV of absorption rate constant (Ka): 51.9%
Regardless of food
  decrease in Ka with PPI: ~50%
[3]
  dose proportionality of PK: dose‐proportionality
